Measurements taken from patent US20240239757A1, “PHTHALAZINONE DERIVATES AS NLRP3 INFLAMMASOME INHIBITORS” (JANSSEN PHARMACEUTICA NV, priority 2021, published 2024).

Legend:
[1] = test system: IL-1β; assay: PBMC assay, IL-1β; format: cell-based; settings: human PBMCs, 30 min with compound, then 100 ng/ml LPS for 6 hrs, supernatant analysed via MSD technology, read-out: IL1β IC50
Procedure: The activity of a compound according to the present invention can be assessed by in vitro methods.
(§1) Peripheral venous blood was collected from healthy individuals and human peripheral blood mononuclear cells (PBMCs) were isolated from blood by Ficoll-Histopaque (Sigma-Aldrich, A0561) density gradient centrifugation. After isolation, PBMCs were stored in liquid nitrogen for later use. Upon thawing, PBMC cell viability was determined in growth medium (RPMI media supplemented with 10% fetal bovine serum, 1% Pen-Strep and 1% L-glutamine). Compounds were spotted in a 1:3 serial dilution in DMSO and diluted to the final concentration in 30 μl medium in 96 well plates (Falcon, 353072). PBMCs were added at a density of 7.5×10^4 cells per well and incubated for 30 min in a 5% CO2 incubator at 37° C. LPS stimulation was performed by addition of 100 ng/ml LPS (final concentration, Invivogen, tlrl-smlps) for 6 hrs followed by collection of cellular supernatant and the analysis of IL-1β (μM) and TNF cytokines levels (μM) via MSD technology according to manufacturers' guidelines (MSD, K151A0H).
(§2) The IC50 values (for IL-1β) and EC50 values (TNF) were obtained on compounds of formula (I)/examples, and are depicted in the following table: […]

[2] = test system: TNF; assay: PBMC assay, TNF; format: cell-based; settings: human PBMCs, 30 min with compound, then 100 ng/ml LPS for 6 hrs, supernatant analysed via MSD technology
Procedure: as §1, §2

| SMILES | IC50 [1] [µM] | EC50 [2] [µM] | melting point [°C] |
| --- | --- | --- | --- |
| CN(C)c1nn(CC(=O)Nc2ccc3nncn3c2)c(=O)c2ccc(C(F)(F)F)cc12 [Compound 1H, N-([1,2,4]triazolo[4,3-a]pyridin-6-yl)-2-(4-(dimethylamino)-1-oxo-6-(trifluoromethyl)phthalazin-2(1H)-yl)acetamide] | 0.08 | > 10 | – |
| CN(C)c1nn(CC(=O)Nc2ccncn2)c(=O)c2ccc(C(F)(F)F)cc12 [Compound 1I] | 0.17 | > 10 | 238.3 |
| CN(C)c1nn(CC(=O)N[C@H]2C[C@@](C)(O)C2)c(=O)c2ccc(C(F)(F)F)cc12 [Compound 1J] | 0.07 | > 10 | 184.8 |
| CN(C)c1nn(CC(=O)Nc2ccc(=O)n(C)n2)c(=O)c2ccc(C(F)(F)F)cc12 [Compound 1K] | 0.36 | > 10 | 241.8 |
| CN(C)c1nn(CC(=O)Nc2ccc3nncn3n2)c(=O)c2ccc(C(F)(F)F)cc12 [Compound 2A, N-([1,2,4]triazolo[4,3-b]pyridazin-6-yl)-2-(4-(dimethylamino)-1-oxo-6-(trifluoromethyl)phthalazin-2(1H)-yl)acetamide] | 0.07 | > 10 | – |
| O=C(Cn1nc(N2CC(F)(F)C2)c2cc(C(F)(F)F)ccc2c1=O)Nc1ccc2nncn2c1 [Compound 3C] | > 10 | > 10 | – |
| O=C(Cn1nc(N2CC(F)(F)C2)c2cc(C(F)(F)F)ccc2c1=O)Nc1ccncn1 [Compound 3D] | 3.32 | > 10 | 288.6 |
| O=C(Cn1nc(N2CC(F)(F)C2)c2cc(C(F)(F)F)ccc2c1=O)Nc1ccnnc1 [Compound 3E] | 9.61 | > 10 | 221.6 |
| C[C@]1(O)C[C@@H](NC(=O)Cn2nc(N3CC(F)(F)C3)c3cc(C(F)(F)F)ccc3c2=O)C1 [Compound 3F] | 3.09 | > 10 | 213.3 |
| CC(C)n1ccc(NC(=O)Cn2nc(N3CC(F)(F)C3)c3cc(C(F)(F)F)ccc3c2=O)n1 [Compound 3G] | > 10 | > 10 | 220 |
| O=C(Cn1nc(N2CC(F)(F)C2)c2cc(Br)ccc2c1=O)Nc1ccncn1 [Compound 4G] | 4.29 | > 10 | 286.8 |
| CN(C)c1nn(CC(=O)N[C@H]2C[C@@](C)(O)C2)c(=O)c2ccc(Br)cc12 [Compound 5C] | 0.03 | > 10 | 193.2 |
| CN(C)c1nn(CC(=O)Nc2ccc3nncn3c2)c(=O)c2ccc(Br)cc12 [Compound 5D] | 0.05 | > 10 | > 300 |
| CN(C)c1nn(CC(=O)Nc2ccc(=O)n(C)n2)c(=O)c2ccc(Br)cc12 [Compound 5E] | 0.17 | > 10 | 246.8 |
| CN(C)CCN(C)c1nn(CC(=O)Nc2ccc3nncn3c2)c(=O)c2ccc(C(F)(F)F)cc12 [Compound 6C] | > 10 | > 10 | – |
| COCCN(C)c1nn(CC(=O)Nc2ccc3nncn3c2)c(=O)c2ccc(C(F)(F)F)cc12 [Compound 7C] | 5.63 | > 10 | – |
| CN(C)c1nn(CC(=O)N[C@H]2C[C@@](C)(O)C2)c(=O)c2ccc(Cl)cc12 [Compound 8H] | 0.12 | > 10 | 184.8 |
| CN(C)c1nn(CC(=O)Nc2ccc3nncn3c2)c(=O)c2ccc(Cl)cc12 [Compound 8I] | 0.31 | > 10 | 295.3 |
| CN(C)c1nn(CC(=O)Nc2ccc(=O)n(C)n2)c(=O)c2ccc(Cl)cc12 [Compound 8J] | 0.84 | > 10 | 253.4 |
| CN(C)c1nn(CC(=O)N[C@H]2C[C@@](C)(O)C2)c(=O)c2cc(Cl)ccc12 [Compound 9H] | > 10 | > 10 | 173.1 |
| CN(C)c1nn(CC(=O)Nc2ccc(=O)n(C)n2)c(=O)c2cc(Cl)ccc12 [Compound 9I] | > 10 | > 10 | 213.2 |
| CN(C)c1nn(CC(=O)Nc2ccc3nncn3c2)c(=O)c2cc(Cl)ccc12 [Compound 9J] | > 10 | > 10 | > 300 |
| CN(C)c1nn(CC(=O)Nc2ccc3nncn3n2)c(=O)c2ccc(Cl)cc12 [Compound 10A] | 0.13 | > 10 | 270.3 |
| CN(C)c1nn(CC(=O)Nc2ccc3nncn3n2)c(=O)c2ccc(Br)cc12 [Compound 11A] | 0.05 | > 10 | 231.6 |
